Data set [1] addresses T1, α4β2 nAChR (Rattus norvegicus, UniProt P09483+P12390).
T1 construct: expressed in transfected cells
Briefly: [3H]-epibatidine radioligand competition binding assay. How it is done: (§1) Stably transfected cell lines, tissue culture conditions, membrane preparation procedures and binding assays were described previously. Briefly, cultured cells at >80% confluence were removed from their flasks (80 cm^2) with a disposable cell scraper and placed in 10 mL of 50 mM Tris.HCl buffer (pH 7.4, 4° C.). The cell suspension was centrifuged at 10,000×g for 5 min and the pellet was collected. The cell pellet was then homogenized in 10 mL buffer with a polytron homogenizer and centrifuged at 36,000 g for 10 min at 4° C. The membrane pellet was resuspended in fresh buffer, and aliquots of the membrane preparation were used for binding assays. The concentration of [^3H]-epibatidine used was ˜500 pM for competition binding assays. […] Bound and free ligands were separated by vacuum filtration through Whatman GF/C filters treated with 0.5% polyethylenimine. The filter-retained radioactivity was measured by liquid scintillation counting. Specific binding was defined as the difference between total binding and nonspecific binding. Data from competition binding assays were analyzed using Prism 5 (GraphPad Software, San Diego, Calif.).
(§2) The in vitro binding affinities of the new ligands were measured for defined receptor subtypes (α2β2, α2β4, α3β2, α3β4, α4β2, α4β4, α6β2, α6β4, and α7) expressed in stably transfected cell lines. [^3H]Epibatidine ([^3H]EB) binds to the agonist recognition site of all of the defined receptor subtypes with high affinities. Rat forebrain homogenates were included to allow comparison between the heterologous and native α4β2 and α7 nAChRs. See FIG. 18 for binding affinity values (Ki) of the ligands at the three major nAChR subtypes (α3β4, […], and α7).
(§3) The binding affinities of all compounds synthesized for the receptor subtypes were examined in binding competition studies against [^3H]-epibatidine.
On the technique in general: Loss of bound radioactivity is the signal in a displacement assay; it reports binding, not function.

For data set [2], the target named is T2, α3β4 nAChR (Rattus norvegicus, UniProt P04757+P12392).
T2 construct: expressed in transfected cells; host or cells: HEK 293 (KXα3β4R2)
The data set is described as above. Here is the method: as §1, §2, §3

Data set [3] deals with T3, α7 nAChR (Rattus norvegicus, UniProt Q05941).
T3 construct: expressed in transfected cells
The data set is described as above. The note with it: competition against [3H]-epibatidine. Here is the method:
as §1, §2, §3

The target in data set [4] is T4, human α4β2 nAChRs (Homo sapiens, UniProt P17787+P43681).
T4 construct: expressed in transfected cells
Briefly: 86Rb+ efflux assay in stably transfected cells. The class given is cell-based. As to conditions: for IC50: 10 min pre-treatment before 100 μM (−)-nicotine, read-out: IC50(10′) α4β2 (desensitization potency). How it is done:
(§4) The cell line expressing rat α3β4 nAChRs, KXα3β4R2, was established previously by stably transfecting HEK 293 cells with combinations of rat nAChR α3 and β4 subunit genes. The cell line expressing human α4β2 nAChRs, YXα4β2H1, were established recently (Tuan et al., 2012, manuscript in preparation). These cell lines were maintained in minimum essential medium (MEM) supplemented with 10% fetal bovine serum, 100 units/mL penicillin G, […] streptomycin and selective antibiotics at 37° C. with 5% CO2 in a humidified incubator. Tissue culture medium and antibiotics were obtained from Invitrogen Corporation (Carlsbad, Calif.), unless otherwise stated. Fetal bovine serum and horse serum were provided by Gemini Bio-Products (Woodland, Calif.).
(§5) Functional properties of compounds at nAChRs expressed in the transfected cells were measured using ^86Rb^+ efflux assays as described previously. In brief, cells were plated into 24-well plates coated with poly-D-lysine. The plated cells were grown at 37° C. for 18 to 24 hour to reach 85-95% confluence. The cells were then incubated in growth medium (0.5 mL/well) containing ^86Rb^+ (2 μCi/mL) for 4 hour at 37° C. The loading mixture was then aspirated, and the cells were washed four times with 1 mL buffer (15 mM HEPES, 140 mM NaCl, 2 mM KCl, 1 mM MgSO4, 1.8 mM CaCl2, 11 mM Glucose, pH 7.4). One mL of buffer with or without compounds to be tested was then added to each well. After incubation for 2 min, the assay buffer was collected for measurements of ^86Rb^+ released from the cells. Cells were then lysed by adding 1 mL of 100 mM NaOH to each well, and the lysate was collected for determination of the amount of ^86Rb^+ that was in the cells at the end of the efflux assay. Radioactivity of assay samples and lysates was measured by liquid scintillation counting. Total loading (cpm) was calculated as the sum of the assay sample and the lysate of each well. The amount of ^86Rb^+ efflux was expressed as a percentage of ^86Rb^+ loaded. […] For obtaining EC50 and Emax values, stimulation curves were constructed in which 8 different concentrations of a ligand were included in the assay. […] EC50, Emax and IC50(10′) values were determined by nonlinear least-squares regression analyses (GraphPad, San Diego, Calif.).
(§6) Functional properties of the new ligands were determined by ^86Rb^1 efflux assays in cells expressing α3β4 and α4β2 nAChR subtypes. Functional activity of each new ligand was measured in terms of its agonism, antagonism and desensitization ability.
(§7) Agonist activity of each of the ligands was tested at eight concentrations. […] The full concentration-effect curves generated potency (EC50) and efficacy (Emax) of each ligand.
(§8) Though the ^86Rb^+ efflux assays were the main methodology used to determine functional properties, whole-cell current measurements were also used to verify the key experiments.

The target in data set [5] is T5, rat α3β4 nAChRs (Rattus norvegicus, UniProt P04757+P12392).
T5 construct: expressed in transfected cells; host or cells: HEK 293 (KXα3β4R2)
Kind of data set: 86Rb+ efflux assay in stably transfected cells. The class given is cell-based. The note with it: for IC50: 10 min pre-treatment before 100 μM (−)-nicotine, read-out: IC50(10′) α3β4 (desensitization potency); for agonist activity at α3β4 nAChRs: 86Rb+ efflux, rat α3β4. Here is the method:
as §4, §5, §6, §7, §8

The conditions of data set [6]: human, in vivo; cited from earlier work.
For data set [7], the system named is nicotine self-administration. As to conditions: subcutaneous, previous studies; cited from earlier work.
The mark [8] stands for this setting: competition against [3H]-epibatidine, stably transfected cell membranes, read-out: Ki α3β4.
Where [9] appears, read: competition against [3H]-epibatidine, stably transfected cell membranes, read-out: Ki α4β2.
Where [10] appears, read: preincubated with the cells for 10 min.

The values that follow come from patent publication US9994548B2, “Phenyl-substituted nicotinic ligands, and methods of use thereof” (Georgetown University, priority 2011, dated 2018).

Structures are written as SMILES. Where two headings read alike, the source gives them in different places.

Broadly, the Ki is a measure of affinity in units of concentration, obtained from inhibition or displacement. As a reminder, the IC50 is the concentration that gives 50% inhibition. As to `Fc1ccc(C#Cc2cncc(OC[C@@H]3CCN3)c2)cc1` [VMY-2-101, (S)-3-(azetidin-2-ylmethoxy)-5-((4-fluorophenyl)ethynyl)pyridine], the figures for the Ki in data set [1], in data set [2] (setting [8]) and in data set [3] were 0.083 nM, 0.65 µM and 2 µM, respectively. Moreover, the concentration for half-maximal inhibition (IC50) in data set [4] was 0.008 µM.
For `CCCNCCOc1cncc(C#Cc2ccccc2)c1` [VMY-2-177, N-(2-(5-(phenylethynyl)pyridin-3-yloxy)ethyl)propan-1-amine], the results for the Ki in data set [1] (setting [9]), in data set [2] (setting [8]) and in data set [3] were 1100 nM, 850 µM and 48 µM, respectively. Moreover, the IC50 came to 15 µM in data set [4] and 12 µM in data set [5].
As to `Fc1ccccc1C#Cc1cncc(OC[C@@H]2CCN2)c1` [VMY-2-105, (S)-3-(azetidin-2-ylmethoxy)-5-((2-fluorophenyl)ethynyl)pyridine], the Ki turned out to be 0.072 nM in data set [1], 0.58 µM in data set [2] (setting [8]) and 1.1 µM in data set [3]. Moreover, the IC50 in data set [4] turned out to be 0.02 µM.
As to `CN(C)c1cc(F)cc(C#Cc2cncc(OC[C@@H]3CCN3)c2)c1` [VMY-2-131, (S)-3-((5-(azetidin-2-ylmethoxy)pyridin-3-yl)ethynyl)-5-fluoro-N,N-dimethylaniline], the Ki is 0.031 nM in data set [1], 1 µM in data set [2] (setting [8]) and 0.25 µM in data set [3].
As to `Clc1cccc(C#Cc2cncc(OC[C@@H]3CCN3)c2)c1` [VMY-2-127, (S)-3-(azetidin-2-ylmethoxy)-5-((3-chlorophenyl)ethynyl)pyridine], the Ki in data set [1] came out at 0.093 nM; in data set [2] (setting [8]) it was 3.4 µM; in data set [3], 0.48 µM.
For `C(#Cc1cncc(OC[C@H]2CCN2)c1)c1ccccc1` [VMY-2-191, (R)-3-(azetidin-2-ylmethoxy)-5-(phenylethynyl)pyridine], the results for the inhibitory constant (Ki) in data set [1] (setting [9]), in data set [2] (setting [8]) and in data set [3] were 0.11 nM, 1.7 µM and 1.6 µM, respectively.
In the case of `Fc1cccc(C#Cc2cncc(OC[C@@H]3CCN3)c2)c1` [VMY-2-109, (S)-3-(azetidin-2-ylmethoxy)-5-((3-fluorophenyl)ethynyl)pyridine], the inhibition constant (Ki) came to 0.032 nM in data set [1], 0.52 µM in data set [2] (setting [8]) and 0.72 µM in data set [3]. Moreover, the half-maximal inhibitory concentration (IC50) in data set [4] came to 0.013 µM.
For `Cc1cccc(C#Cc2cncc(OC[C@@H]3CCN3)c2)c1` [VMY-2-123, (S)-3-(azetidin-2-ylmethoxy)-5-(m-tolylethynyl)pyridine], the values for the Ki in data set [1], in data set [2] (setting [8]) and in data set [3] were 0.046 nM, 4 µM and 0.2 µM, respectively. Further, the “selectivity for α4β2 receptors over α3β4 receptors (Ki ratio)” value in data set [1] was 87,000 times.
Regarding `c1cnc2cc3c(cc2n1)[C@@H]1CNC[C@H]3C1` [varenicline, reference compound], the “agonist activity at α4β2 receptors” value in data set [4] (86Rb+ efflux, human α4β2) is “partial agonist activity”. Also, in data set [4] (setting [10]), the “inhibition of nicotine activation of α4β2 receptors” value (from here on “inhibition”) is recorded as “inhibited”. In data set [5], the “agonist activity at α3β4 nAChRs” value is given as “near-full agonist activity”. In data set [6], the “participants in clinical trials who reported nausea” value is reported as ~30%, the “participants in clinical trials who reported vomiting” value is given as 18% and the “percentage of subjects who remained smoke-free for 12 months following treatment” value is ~22%.
With `FC(F)(F)c1cccc(C#Cc2cncc(OC[C@@H]3CCN3)c2)c1` [VMY-2-117, (S)-3-(azetidin-2-ylmethoxy)-5-((3-(trifluoromethyl)phenyl)ethynyl)pyridine], the Ki in data set [1] came out at 0.26 nM; in data set [2] (setting [8]), 1.4 µM; in data set [3] it was 1.3 µM. In addition, the “selectivity for α4β2 receptors over α3β4 receptors (Ki ratio)” value in data set [1] was 5,400 times.
Turning to `Fc1cc(F)cc(C#Cc2cncc(OC[C@@H]3CCN3)c2)c1` [VMY-2-113, (S)-3-(azetidin-2-ylmethoxy)-5-((3,5-difluorophenyl)ethynyl)pyridine], the results for the Ki in data set [1], in data set [2] and in data set [3] were 0.05 nM, 1.4 µM and 1.8 µM, respectively.
For the compound `COc1cc(F)cc(C#Cc2cncc(OC[C@@H]3CCN3)c2)c1` [VMY-2-139, (S)-3-(azetidin-2-ylmethoxy)-5-((3-fluoro-5-methoxyphenyl)ethynyl)pyridine], the inhibition constant Ki was 0.076 nM in data set [1], 1.3 µM in data set [2] (setting [8]) and 1.5 µM in data set [3].
`OCCCCC#Cc1cncc(OC[C@@H]2CCN2)c1` [Sazetidine-A, reference compound]: the Ki turned out to be 0.062 nM in data set [1] (setting [9]), 1.9 µM in data set [2] (setting [8]) and 1.6 µM in data set [3]. Also, the “lowest effective dose reducing nicotine self-administration” value in data set [7] was 3 mg/kg. Further, the IC50 in data set [4] (listed as Saz-A) was 0.012 µM; in data set [4], 0.0075 µM; in data set [5], > 10 µM. In data set [4] (setting [10]), the “inhibition” value is recorded as “inhibited”. Also, the “agonist activity at α3β4 nAChRs” value in data set [5] is “does not show agonist activity”. The “effect on the function of rat α3β4 nAChRs” value in data set [5] (concentrations up to 10 μM) is recorded as “had no effect”.
Regarding `C(#Cc1cncc(OCC2CCC2)c1)c1ccccc1` [VMY-2-161, 3-(cyclobutylmethoxy)-5-(phenylethynyl)pyridine], the inhibition constant Ki in data set [1] (setting [9]) came to 160000 nM; in data set [2] (setting [8]), 1300 µM; in data set [3], 410 µM. In addition, the IC50 in data set [4] is 35 µM; in data set [5], > 100 µM.
As for `CN1CC[C@H]1COc1cncc(C#Cc2ccccc2)c1` [VMY-2-205, (S)-3-((1-methylazetidin-2-yl)methoxy)-5-(phenylethynyl)pyridine], the inhibition constant Ki in data set [1] worked out at 1.2 nM; in data set [2] (setting [8]), 40 µM; in data set [3], 7.7 µM. Moreover, the “binding weaker than VMY-2-95 (fold)” value in data set [1] (α4β2 binding affinity relative to (S)-N-H VMY-2-95) is ~25 times. The figures for the IC50 in data set [4] and in data set [5] were 0.37 µM and 22 µM, respectively.
As for `Cc1cc(F)cc(C#Cc2cncc(OC[C@@H]3CCN3)c2)c1` [VMY-2-135, (S)-3-(azetidin-2-ylmethoxy)-5-((3-fluoro-5-methylphenyl)ethynyl)pyridine], the Ki in data set [1] was determined as 0.043 nM; in data set [2] (setting [8]) it was 1.1 µM; in data set [3], 0.59 µM.
Consider `CN1CCCC1c1cccnc1` (centres unmarked) [nicotine, reference compound], for which, in data set [4], the “inhibition” value is “inhibited”.
